The values below are quoted from earlier work in US8946410B2, “Automated radiosynthesis” (GE Healthcare Limited, priority 2009, dated 2015).

The structures appear in SMILES notation. pKi: −log10 of the molar value.

This data set concerns the target GABAA receptor. The note with it: GABAA receptor affinity, related art.

For `CCOC(=O)c1ncn2c1CN(C)C(=O)c1cc([18F])ccc1-2` [[^18F]FMZ, [^18F]Flumazenil], the pKi is about 9.30.
